We go through 4 molecules from PMC9549831 (European Journal of Clinical Pharmacology, 2022).

Broadly, the AUC(0-t) is the area under the concentration-time curve up to a stated or last time point. One may read the Cmax as the highest concentration seen after dosing. A word on the Tmax: it is the time at which the peak concentration occurs. A word on the AUC(0-inf): it is the area under the concentration-time curve extrapolated to infinity. Higher therefore signals high exposure.

One series is described as follows: clinical. As to conditions: human, in vivo. The protocol: Mobile phase composition is 25 mM ammonium acetate: methanol 25:[…]. The flow rate was set at 0.7 ml/min. Injection volume was set at 2.5 ul. […] Before transferring the plasma sample to the MCX cartridge, acidification of the plasma sample with […] of (formic acid 2%) was performed. The sample was washed with 200 ul of 2% formic acid in water followed by 200 ul of methanol. […] Then 350 ul of water was added to the eluent and vortexed. After that, the diluted eluent was transferred to a vial insert, and 2.5 μl was injected into LC/MS/ MS system for analysis. […] The limit of quantification was defined considering the method sensitivity, the precision, and the accuracy. To evaluate precision and accuracy, specific quality control samples were included in the validation procedure. […] Blood samples were collected into tubes containing EDTA disodium as an anticoagulant slightly shaken and centrifuged at approximately 4000 r.p.m. for 10 min. After centrifugation, plasma samples were transferred directly into a 5 ml-plastic tube. These samples were immediately stored at the study site in a freezer at a nominal temperature - 80 °C until analysis. The label of the collecting tubes had the study's code number, subject number, study period, and the designated sample number. […] Pharmacokinetic parameters were determined and calculated. […] The pharmacokinetic analysis was performed using the SAS program. All results were expressed as mean ± SD. Paired T-Test was used to compare results, and the level of significance was considered at (P < 0.05).

Series [1] in a line: Safety and tolerability: adverse effects, blood pressure, pulse rate in healthy volunteers. It is filed as in vivo, human. As to conditions: for incidence of reported headache: 18 volunteers. As to the method: (§1) Blood glucose levels were measured for all volunteers on the ninth and the thirteenth day before dosing and at 0.5, 0.75, 1, 1.5, 2, 2.5, 3, 12, and 24 h; the main outcome measures were maximum plasma glucose concentration (Gmax) and the area under the blood glucose concentration–time curve (AUCg0-t). Blood pressure (systolic and diastolic) and heart rate were measured before dosing and at 2, 4, 6, 8, and 10 h after drug administration.
Blood pressure, pulse rate, and body temperature together with blood glucose levels were reported all over the study. Moreover, possible side and/or adverse reactions or events to the study formulations were recorded to assure the safety and tolerability of different drug administrations.

For series [2] the following is noted: cited from earlier work.
For series [3] the following is noted: independent of total drug concentrations; cited from earlier work.
A further series concerns PDE5. As to conditions: relative to sildenafil; cited from earlier work.
For series [4] the following is noted: healthy subjects and patients with type 2 diabetes; cited from earlier work.
On the set-up of series [5]: method as in PMID 33459228. As to conditions: cited from earlier work.
The nature of series [6]: Pharmacodynamic parameters: blood glucose levels (Gmax, AUCg0-t) in healthy volunteers. It is filed as in vivo, human. As to the method:
as §1

In another series the test system is isolated aorta rings. As to conditions: cited from earlier work.
On the set-up of series [7]: method as in PMID 12076989. As to conditions: after co-administration of diltiazem with saxagliptin; cited from earlier work.
Where [8] appears, read: oral administration, fasting conditions.

For `CCCc1nn(C)c2c(=O)[nH]c(-c3cc(S(=O)(=O)N4CCN(C)CC4)ccc3OCC)nc12` [sildenafil], in the series “clinical” (50 mg), the AUC(0-t) was determined as 977 ng·h/mL, the peak level (Cmax) was 302 ng/mL and the Tmax was 0.977 h. Besides, in series [1] (drug administered alone), the “incidence of reported headache” value was 33.3%. Further, in series [2], the “absolute oral bioavailability, range” value is 25–63%; the “mean absolute oral bioavailability” value is recorded as 41%; the “mean steady-state volume of distribution” value is reported as 105 L; the “terminal half-life (t1/2)” value was 3 to 5 h. Further, the total body clearance in series [2] is given as 41 L/h. In addition, in [2] (setting [8]), the “median time to Cmax” value is on record as 60 min and the “time to maximum observed plasma concentration (Cmax)” value was 30 to 120 min.

Regarding `CCCc1nn(C)c2c(=O)[nH]c(-c3cc(S(=O)(=O)N4CCNCC4)ccc3OCC)nc12` [N-desmethyl metabolite], in [3], the “bound to plasma proteins” value is 96%. Moreover, the “in vitro potency for PDE5 relative to the parent drug” value in the series with PDE5 was “approximately 50%”. In addition, in series [2], the “plasma concentrations relative to those found for sildenafil” value is reported as “approximately 40%” and the “terminal half-life (t1/2)” value was “approximately 4 h”.

On to `N#C[C@@H]1C[C@@H]2C[C@@H]2N1C(=O)[C@@H](N)C12CC3CC(CC(O)(C3)C1)C2` [saxagliptin], for which, in [4], the mean half-life is 2.2 to 3.8 h and the “time to reach maximal plasma concentration” value is recorded as below 2 h. Further, in “clinical” (5 mg), the AUC(0-inf) was 113 ng·h/mL, the AUC(0-t) was 112 ng·h/mL and the Tmax came to 1.24 h. In addition, in series [1] (after co-administration of saxagliptin and sildenafil vs alone (P > 0.001)), the “blood pressure and pulse rate” value is on record as “comparable”. In [1] (co-administration of saxagliptin 5 mg and sildenafil 50 mg), the “incidence of reported headache” value is on record as 44.4%. The “incidence of reported headache” value in [1] (drug administered alone) is reported as 0%. Further, in series [5] (co-administration of simvastatin 40 mg), the “overall systemic exposure to saxagliptin [AUCs]” value was “not affected”. Besides, the “effect on CYP3A4 activity” value in [5] (concluded from simvastatin pharmacokinetics at steady state) is on record as “neither induces nor inhibits CYP3A4 activity”. The “maximum glucose concentration (Gmax)” value in series [6] (saxagliptin 5 mg + sildenafil 50 mg co-administered) turned out to be 95.6 mg/dL. For the same molecule, the “maximum glucose concentration (Gmax)” value in series [6] (saxagliptin 5 mg multiple doses alone) is 93.7 mg/dL. In addition, in the series with isolated aorta rings, the “rise of NO/ONOO- rate” value is recorded as “about 40%” and the “stimulation of NO release” value is on record as “about 18%”.

On to `N#C[C@@H]1C[C@@H]2C[C@@H]2N1C(=O)[C@@H](N)C12CC3CC(O)(CC(O)(C3)C1)C2` [5-hydroxy saxagliptin], for which, in series [7], the “decrease of geometric mean AUC0-inf” value was 34% and the “decrease of geometric mean Cmax” value is recorded as 43%.
